Reference: patent US5637501A, “Apparatus for automatically testing the antibiotic sensitivity of a paraffinophilic microorganism” (Infectech, Inc., priority 1995, dated 1997)
Where a name gives a salt, the structure may show the parent alone. Read-outs that look alike come from different tables or passages of the source.

Tested on: MAI
Assay: antibiotic sensitivity (MIC) of MAI strains, paraffin slide culture and microliter assays
Type: cell-based, Mycobacterium avium-intracellulare
Design: key: NG: No Growth
Description: The present invention has met the above-described need. In one embodiment, it provides a method of automatically testing the sensitivity of a paraffinophilic microorganism to different antimicrobial agents, such as antibiotics, and concentrations thereof, by providing a plurality of receptacles, each containing an amount of liquid medium, an antimicrobial agent to be tested and the microorganism to be tested. In each of the receptacles is placed a slide containing a paraffin source. The receptacles are then incubated, after which a light scatter sensing means automatically and sequentially monitors the extent of microorganism growth on the slides. The extent of colony growth is employed to determine which antimicrobial agent in which concentration is effective to resist growth of the microorganism. A preferred light scatter sensing means is a nephelometer.
Referring specifically to FIG. 1, there is shown a preferred embodiment of the present invention usable in a method of automatically testing the sensitivity of a pure culture of a microorganism to different antimicrobial agents and concentrations thereof. In this embodiment, a microorganism, which may have been previously speciated as by the technique taught in U.S. Pat. No. 5,153, 119, has been introduced into a plurality of receptacles, each containing an amount of liquid medium and antimicrobial agent to be tested. A paraffin slide is introduced into each of the receptacles which are subsequently incubated. The receptacles 2-22 (even numbers only) are fixedly secured to an elongated, substantially rigid movable carrier member 26, such that the receptacles 2-22 will be translated therewith in the direction shown by the arrow A. The carrier member 26 may be made of any suitable material, such as aluminum, steel, stainless steel, or resinous plastic, for example. The receptacles 2-22, respectively, contain slides 32-52 (even numbers only). The slides 32-52 are fixedly secured, respectively, within receptacles 2-22 which may test tubes. The slides 32-52 are generally oriented so as to have their elongated direction aligned with the direction of travel of the carrier 26. As the carrier moves in the direction of arrow A, the slides 2-22 will sequentially be positioned in operative relationship to the light scatter sensing means which consists of light source 60, which directs a light beam toward light detector 62. In the preferred embodiment, a beam of visible light from light source 60 will impinge upon slide 32, with the growth of the microorganism thereon producing a corresponding scatter of light which is received by the light receiving sensor 62 and converts the received light into an appropriate output electrical signal which will be delivered to computer means 64. The computer means 64, in turn, provides output to output means 66, which may conveniently be a display, such as a cathode ray tube or a hard copy printer, for example. The degree of light scatter will be related to the extent of microorganism growth with light scatter increasing as growth on the slide increases.
The computer means 64 may be a general purpose digital microprocessor. It may be programmed in a manner readily known to those skilled in the art to sequentially compare the light scatter value of each slide 32-52 with that of a control slide and to provide an output to output means 66, such as a visual screen display or hard copy, with or without prior enhancement, which indicates the difference between the control slide and the specific slides containing the same pure culture of a paraffinophilic microorganism, but exposed to different concentrations of different or the same antimicrobial agents, such an antibiotics. In this manner, there is provided the minimal concentration level of a specific antimicrobial agent that must be used to control growth of the microorganism. Also, the minimum bactericidal concentration may be determined. […]

SMILES: O=C(O)c1cn(C2CC2)c2cc(N3CCNCC3)c(F)cc2c1=O [ciprofloxacin-HCl]
- Days to Confluency (Exp. Series II, strain 1): 9 days
- Days to Confluency (Exp. Series II, strain 2): 9 days
- Days to Confluency (Exp. Series II, strain 3): NG
- MIC (Exp. Series II, strain 3): NG
- Days to Confluency (Exp. Series II, strain 4): 10 days
- Days to Confluency (Exp. Series II, strain 5): 9 days
- Days to Confluency (Exp. Series II, strain 6): 10 days
- Days to Confluency (Exp. Series II, strain 7): 10 days
- Days to Confluency (Exp. Series II, strain 8): 9 days
- Days to Confluency (Exp. Series II, strain 9): 10 days
- Days to Confluency (Exp. Series II, strain 10): 7 days
- Days to Confluency (Exp. Series II, strain 11): 7 days
- Days to Confluency (Exp. Series II, strain 12): 7 days
- Days to Confluency (Exp. Series II, strain 13): 8 days
- Days to Confluency (Exp. Series II, strain 14): 7 days
- Days to Confluency (Exp. Series II, strain 15): 7 days
- Days to Confluency (Exp. Series II, strain 16): 7 days
- Days to Confluency (Exp. Series III, strain 1): 7 days
- Days to Confluency (Exp. Series III, strain 2): 8 days
- Days to Confluency (Exp. Series III, strain 3): 8 days
- Days to Confluency (Exp. Series III, strain 4): 9 days
- Days to Confluency (Exp. Series III, strain 5): 8 days
- Days to Confluency (Exp. Series III, strain 6): 9 days
- Days to Confluency (Exp. Series III, strain 7): 8 days
- Days to Confluency (Exp. Series III, strain 8): 8 days
- Days to Confluency (Exp. Series III, strain 9): 8 days
- Days to Confluency (Exp. Series III, strain 10): 6 days
- Days to Confluency (Exp. Series III, strain 11): 6 days
- Days to Confluency (Exp. Series III, strain 12): 6 days
- Days to Confluency (Exp. Series III, strain 13): 7 days
- Days to Confluency (Exp. Series III, strain 14): 7 days
- Days to Confluency (Exp. Series III, strain 15): 7 days
- Days to Confluency (Exp. Series III, strain 16): 6 days
- MIC (Mycobacterium avium-intracellulare, Exp. Series II, strain 1, read-out: MIC): 3.6 µg/mL
- MIC (Mycobacterium avium-intracellulare, Exp. Series II, strain 2, read-out: MIC): 18.2 µg/mL
- MIC (Mycobacterium avium-intracellulare, Exp. Series II, strain 4, read-out: MIC): 3.6 µg/mL
- MIC (Mycobacterium avium-intracellulare, Exp. Series II, strain 5, read-out: MIC): 7.3 µg/mL
- MIC (Mycobacterium avium-intracellulare, Exp. Series II, strain 6, read-out: MIC): 3.6 µg/mL
- MIC (Mycobacterium avium-intracellulare, Exp. Series II, strain 7, read-out: MIC): 3.6 µg/mL
- MIC (Mycobacterium avium-intracellulare, Exp. Series II, strain 8, read-out: MIC): 3.6 µg/mL
- MIC (Mycobacterium avium-intracellulare, Exp. Series II, strain 9, read-out: MIC): 3.6 µg/mL
- MIC (Mycobacterium avium-intracellulare, Exp. Series II, strain 10, read-out: MIC): 14.5 µg/mL
- MIC (Mycobacterium avium-intracellulare, Exp. Series II, strain 11, read-out: MIC): 7.3 µg/mL
- MIC (Mycobacterium avium-intracellulare, Exp. Series II, strain 12, read-out: MIC): 10.9 µg/mL
- MIC (Mycobacterium avium-intracellulare, Exp. Series II, strain 13, read-out: MIC): 18.2 µg/mL
- MIC (Mycobacterium avium-intracellulare, Exp. Series II, strain 14, read-out: MIC): 18.2 µg/mL
- MIC (Mycobacterium avium-intracellulare, Exp. Series II, strain 15, read-out: MIC): 7.3 µg/mL
- MIC (Mycobacterium avium-intracellulare, Exp. Series II, strain 16, read-out: MIC): 7.3 µg/mL
- MIC (Mycobacterium avium-intracellulare, Exp. Series III, strain 1, read-out: MIC): 3.6 µg/mL
- MIC (Mycobacterium avium-intracellulare, Exp. Series III, strain 2, read-out: MIC): 14.5 µg/mL
- MIC (Mycobacterium avium-intracellulare, Exp. Series III, strain 3, read-out: MIC): 3.6 µg/mL
- MIC (Mycobacterium avium-intracellulare, Exp. Series III, strain 4, read-out: MIC): 3.6 µg/mL
- MIC (Mycobacterium avium-intracellulare, Exp. Series III, strain 5, read-out: MIC): 7.3 µg/mL
- MIC (Mycobacterium avium-intracellulare, Exp. Series III, strain 6, read-out: MIC): 7.3 µg/mL
- MIC (Mycobacterium avium-intracellulare, Exp. Series III, strain 7, read-out: MIC): 7.3 µg/mL
- MIC (Mycobacterium avium-intracellulare, Exp. Series III, strain 8, read-out: MIC): 3.6 µg/mL
- MIC (Mycobacterium avium-intracellulare, Exp. Series III, strain 9, read-out: MIC): 3.6 µg/mL
- MIC (Mycobacterium avium-intracellulare, Exp. Series III, strain 10, read-out: MIC): 14.5 µg/mL
- MIC (Mycobacterium avium-intracellulare, Exp. Series III, strain 11, read-out: MIC): 7.3 µg/mL
- MIC (Mycobacterium avium-intracellulare, Exp. Series III, strain 12, read-out: MIC): 7.3 µg/mL
- MIC (Mycobacterium avium-intracellulare, Exp. Series III, strain 13, read-out: MIC): > 18.2 µg/mL
- MIC (Mycobacterium avium-intracellulare, Exp. Series III, strain 14, read-out: MIC): 14.5 µg/mL
- MIC (Mycobacterium avium-intracellulare, Exp. Series III, strain 15, read-out: MIC): 7.3 µg/mL
- MIC (Mycobacterium avium-intracellulare, Exp. Series III, strain 16, read-out: MIC): 3.6 µg/mL
